Measurements taken from patent publication US8841271B2, “Oligonucleotide complex compositions and methods of use as gene alteration tools” (The General Hospital Corporation, priority 2004, dated 2014).
Where “and” joins values, the source holds several entries; their conditions need not be identical. Identical values can stand only once. Entries after “also recorded” stand apart in the source; their conditions may differ. In the oligonucleotide strings, read from the 5' end, every base follows the letter of its sugar. An asterisk marks phosphorothioate; unmarked linkages are phosphodiester. Other units and linkages are bracketed, terminal groups are in braces. A string of capitals states the bases alone. m = 2'-O-methyl; r = 2'-OH (RNA); {P} = phosphate

Key:
[1] = test system: CFTR; assay: DPC block of cAMP-activated whole cell currents in treated Δ508 cells; assay type: cell-based, human; details: DPC 500 μM
Experimental: Whole-cell and excised inside-out patches were obtained to assess cAMP-PKA dependent anion currents in treated Δ508 cells. Currents and command voltages were obtained and driven. respectively, with a Dagan 3900 amplifier using a 1 gigaohm headstage. The excised patch-clamp configuration was carried out as previously described [Reisin et al., (1994) J. Biol. Chem. 269, 20584-20591]. Single channel data were obtained between ±100 mV in symmetrical Cl^−. Data were further analyzed as previously described [Reisin et al., (1994) J. Biol. Chem. 269, 20584-20591]. The pipette and bathing solution contained, in mmol/L, either: NaCl 140, MgCl2 1.0, KCl 5, and N-2-hydroxyethylpiperazine N′-2-ethanesulfonic acid (HEPES) 10, at pH 7.4, or MgCl2 70, HEPES 10, pH 7.4. The bathing solution also contained 1.0 mmol/L CaCl2. Whenever indicated, the patch-pipette was filled up to at least one third of its height with either MgATP or TrisATP (100 mmol/L, pH 7.4 adjusted with N-methyl-glucamine) as previously reported [Reisin et al., (1994) J. Biol. Chem. 269, 20584-20591]. Experiments were conducted at room temperature. The cAMP stimulatory mixture contained 8-Br-cAMP, isobutyl-methyl-xanthine (IBMX) and forskolin. Final concentrations were 500 μmol/L, […], and 10 μmol/L, respectively. The catalytic subunit of PKA was used at a final concentration of 20 μg/ml. […]

[2] = test system: CFTR protein; assay: Western blot with antibodies to epitopes upstream and downstream of the Δ508 deletion; assay type: cell-based, human; details: both antibodies same level of protein, no truncated or degraded peptides
Experimental: (§1) Without being limited by any particular mechanism, the hypothesis was tested as to whether base insertion in the treated Δ508 cells has occurred at the RNA level. It was possible that the repair mechanism was carried out instead of/or in addition to, the DNA level, by way of reverse transcription extending back to the genome. This was tested by RT-PCR analysis of DNA from subcloned Δ508 cells originally treated with CF4/CF6. No evidence was obtained that the restored phenotype was carried back to the inheritable DNA genome level was obtained. Western blot analysis was conducted with antibodies targeted to epitopes upstream and downstream of the Δ508 deletion, respectively.

[3] = test system: DNA genome of Δ508 cells; assay: RT-PCR analysis of DNA from subcloned treated Δ508 cells; assay type: cell-based; details: subcloned Δ508 cells originally treated with CF4/CF6
Experimental: as §1

[4] = test system: Δ508 cells; assay: SPQ fluorescence assay of cAMP-stimulated Cl- transport; assay type: cell-based, mouse; details: CF4/CF6 treated Δ508 cells compared with WT1 cells; control Δ508 cells no change
Experimental: (§2) Mouse mammary carcinoma cells (c127i) transfected with human epithelial CFTR wild type (WT1) or Δ508 CFTR cells [Cannello et al., (1994), J. Biol. Chem. 269, 11224-11232; Dechecchi et al., (1993) J. Biol. Chem. 268, 11321-11325] were used for these studies. The transfected c127i cells are high level producers of Δ508 CFTR mRNA. Cells were grown and maintained in Dulbecco's medium (DMEM), supplemented with 10% fetal bovine serum and 1% L-glutamine, as previously reported [Verkman, (1990) Am. J. Physiol. 259, C375-C388].
Cyclic-AMP-stimulated CY transport was also followed by fluorescence changes of cells loaded with the CY sensitive dye 6-methoxy-N-(3-sulfopropyl)quinolinium (SPQ) [Verkman, (1990) Am. J. Physiol. 259, C375-C388]. Briefly, cells were grown to partial confluence on glass coverslips. […] SPQ fluorescence was determined under an oil immersion X20 objective in a Nikon E-800 fluorescence microscope (Tokyo, Japan), with an UV filter (96101C UV-2E/C). […] Pictures were analyzed digitally with the NIH Image 1.62b7 software. SPQ cytoplasmic fluorescence values were normalized between intra-nuclear (considered as zero quenching, i.e. low Cl^−), and extracellular background. Data were expressed as percent fluorescence with respect to time zero, the time when cells were placed in an isotonic saline solution. […]

[5] = test system: Δ508CFTR expressing cells; assay: Single channel currents in excised inside-out patches (PKA and ATP activation); assay type: cell-based, mouse; details: treated Δ508 cells
Experimental: as §2
Whole-cell and excised inside-out patches were obtained to assess cAMP-PKA dependent anion currents in treated Δ508 cells. Currents and command voltages were obtained and driven. respectively, with a Dagan 3900 amplifier using a 1 gigaohm headstage. The excised patch-clamp configuration was carried out as previously described [Reisin et al., (1994) J. Biol. Chem. 269, 20584-20591]. Single channel data were obtained between ±100 mV in symmetrical Cl^−. Data were further analyzed as previously described [Reisin et al., (1994) J. Biol. Chem. 269, 20584-20591]. The pipette and bathing solution contained, in mmol/L, either: NaCl 140, MgCl2 1.0, KCl 5, and N-2-hydroxyethylpiperazine N′-2-ethanesulfonic acid (HEPES) 10, at pH 7.4, or MgCl2 70, HEPES 10, pH 7.4. The bathing solution also contained 1.0 mmol/L CaCl2. […]

[6] = test system: Δ508 CFTR mRNA; assay: RT-PCR, subcloning and sequencing of CFTR mRNA; assay type: cell-based, human; details: mRNA from CF4/CF6 treated Δ508 cells (10 μM), subcloned RT-PCR products
Experimental: Total RNA isolated by Trizol® reagent according to the manufacturer's protocol (Invitrogen, CA) from either WT1 or Δ508 cells treated with or without CF6/CF4 annealed duplex oligonucleotides (final concentration of duplex in reaction mixture 10 μM) was used to perform the RT-PCR assay [Kleppe et al., (1971) J. Mol. Biol. 56, 341-361] in two steps by using a ThermoScript RT-PCR system (GIBCO, BRL). Several sets of primers were used (see CF Table 1). In the first step, total RNA (˜2 μg) was incubated for […] at 55° C. with amplification refractory mutation system (ARMS) [Ferric et al., (1992) Am. J. Hum. Genet. 51, 251-262] reverse mutant (M1) and normal (N1) primers (0.5 μg each) separately for the first-strand synthesis. In a second step, after heating at 94° C. for 5 mM, 35 cycles of PCR were carried out on the samples. PCR cycles were performed first by denaturation at 94° C. for 2 mM, annealing at 62° C. for 1 min, and extension at 72° C. for 2 min, followed by a final extension for 10 mM at 72° C. Two ARMS reverse primers (N1 and M1) [Ferric et al., (1992) Am. J. Hum. Genet. 51, 251-262], and a forward (F1) primer were used (Table 1). Similarly RT-PCR was performed with ARMS PS reverse primer (SCFR) and PS forward primer (SNF1, Table 1). RT-PCR products were separated in 3% agarose gel and subjected to automated DNA sequence analysis. […]

[7] = test system: Δ508CFTR expressing cells; assay: Whole-cell patch clamp, cAMP-activated whole cell currents; assay type: cell-based, mouse
Experimental: as §2
Whole-cell and excised inside-out patches were obtained to assess cAMP-PKA dependent anion currents in treated Δ508 cells. Currents and command voltages were obtained and driven. respectively, with a Dagan 3900 amplifier using a 1 gigaohm headstage. The excised patch-clamp configuration was carried out as previously described [Reisin et al., (1994) J. Biol. Chem. 269, 20584-20591]. Single channel data were obtained between ±100 mV in symmetrical Cl^−. Data were further analyzed as previously described [Reisin et al., (1994) J. Biol. Chem. 269, 20584-20591]. The pipette and bathing solution contained, in mmol/L, either: NaCl 140, MgCl2 1.0, KCl 5, and N-2-hydroxyethylpiperazine N′-2-ethanesulfonic acid (HEPES) 10, at pH 7.4, or MgCl2 70, HEPES 10, pH 7.4. The bathing solution also contained 1.0 mmol/L CaCl2. Whenever indicated, the patch-pipette was filled up to at least one third of its height with either MgATP or TrisATP (100 mmol/L, pH 7.4 adjusted with N-methyl-glucamine) as previously reported [Reisin et al., (1994) J. Biol. Chem. 269, 20584-20591]. Experiments were conducted at room temperature. The cAMP stimulatory mixture contained 8-Br-cAMP, isobutyl-methyl-xanthine (IBMX) and forskolin. Final concentrations were 500 μmol/L, […], and 10 μmol/L, respectively. The catalytic subunit of PKA was used at a final concentration of 20 μg/ml. The Cl^− channel blocker, diphenylamine-2-carboxylate (DPC) was kept in a 100-fold stock solution (20 mmol/L) in 50% water/ethanol. DPC was used at a final concentration of 500 μM.
To restore the normal (wild type) phenotype in cells expressing Δ508CFTR, modified oligonucleotides were constructed and their effect on ion transport was assessed in Δ508 cells treated with these constructs. In a first step, a modified oligodeoxyribonucleotide was synthesized, containing phosphorothioate (PS) and PS plus 2′-O-methyl modifications for the central and flanking segments, respectively. This oligonucleotide was designed to hybridize in Watson-Crick base complementarity to the region of Δ508 mRNA where the PS section would be directly opposite the Δ508 mRNA position, flanked 3′- and 5′- by adjacent nucleotides complementary to the Δ508 mRNA. Accordingly, the PS segment would activate endogenous RNase H, and cleave those bases opposite the PS complementary oligonucleotide (10 μM). The insertion of bases then occurs in a second step.
For the second or insertion step, two complementary single strand oligonucleotides, CF4 and CF6 (Table 1, Scheme 1A) were constructed. The annealed CF4/CF6 duplex (10 μM final concentration) was added to the Δ508 CFTR cells after 2 hours incubation, then washout, in the deletion step. Next, following overnight or up to 72 hour incubation in the second (insertion) step, patch clamp examination was conducted on the treated cells.

[8] = two step treated Δ508 cells, n=24

Compound: O=C(O)c1ccccc1Nc1ccccc1 [DPC, diphenylamine-2-carboxylate]
- effect on cAMP-activated currents ([1]; CF4/CF6 treated Δ508 cells, FIG. 1): inhibited
- inhibition of cAMP-activated currents ([1]; two step treated Δ508 cells): > 84%

Compound: CF4/CF6: 2′-O-methyl RNA/unmodified RNA oligonucleotide duplex of CF4 (SEQ ID NO: 1) and CF6 (SEQ ID NO: 2) (chain 1 mAmUmCmAmUmAmGmGmAmAmAmCmAmCmCmAmAmAmGmAmUmGmAmUmAmUmUmUmUmCmUmUmU; chain 2 {P}-rCrArUrCrUrUrUrGrGrUrG-{P}; listed as Homo sapiens)
- CFTR protein made in the presence of the oligonucleotides [2]: full-length protein was made; also recorded: does not act as an inhibitor of protein synthesis
- restored phenotype carried back to the inheritable DNA genome level [3]: No evidence
- change in SPQ fluorescence in response to cAMP stimulation [4]: comparably similar change in SPQ fluorescence
- single channel conductance of PKA-activated Cl- channels ([5]; excised inside-out patches): 10-12 pS and 12 pS
- treated cells displaying PKA and ATP activated Cl- channels ([5]; control Δ508 cells 0/24): 10/12
- UGU insertion in Δ508 mRNA (percentage of subclones showing TGT insertion) [6]: 20-30%
- time to restoration of CFTR channel function ([7]; CF4/CF6 duplex added to Δ508 cells in tissue culture, patch clamping and SPQ quenching): 8 to 18 h
- whole-cell currents in the absence of cAMP stimulation ([7]; CF4/CF6 treated cells, data not shown): sporadically showed large, DPC inhibitable whole-cell currents
- cAMP-activated whole cell conductance ([7]; CF4/CF6 treated Δ508 cells, FIG. 1, untreated Δ508 cells lacked it): robust cAMP response
- persistence of restored CFTR function ([7]; after cell replication and washing out of the oligonucleotide after a few days incubation): restoration of CFTR function was lost
- phenotypic reversion by patch clamp ([7]; one step: CF4/CF6 duplex added without first oligonucleotide treatment step): phenotypic reversion was likewise found
- increase of whole cell currents after cAMP stimulation ([7]; two step treated Δ508 cells (PS oligonucleotide 10 μM 2 h, washout, then CF4/CF6 10 μM overnight to 72 h), n=24, p<0.01): 243%
- whole cell conductance after cAMP stimulation [7, 8]: 2.98±0.68 nS/Cell
- whole cell conductance before cAMP stimulation [7, 8]: 0.87±0.16 nS/Cell
